Experimental data from the supplement of paper PMC4862054.

Experiments:
BT-474 [1] = test: normalised viability (% of control), CellTiter-Blue; higher = more viable cells (about 100 = DMSO control); conditions: 100 nM; incubation time: 72 h
Protocol: (§1)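 DSRT, CellTiter-Blue viability, 72 h incubation. Signal is normalised to DMSO and benzethonium chloride controls. Value is the normalised response at dose 3.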

BT-549 [2] = test: as above; conditions: 100 nM; incubation time: 72 h
Protocol: as §1

CAL-120 = test: as above; conditions: 100 nM; incubation time: 72 h
Protocol: as §1

CAL-148 = test: as above; conditions: 10 nM; incubation time: 72 h
Protocol: as §1

CAL-51 [3] = test: as above; conditions: 10 nM; incubation time: 72 h
Protocol: as §1

CAL-85-1 [4] = test: as above; conditions: 10 nM; incubation time: 72 h
Protocol: as §1

DU-4475 [5] = test: as above; conditions: 10 nM; incubation time: 72 h
Protocol: as §1

HCC1143 [6] = test: as above; conditions: 100 nM; incubation time: 72 h
Protocol: as §1

HCC1599 [7] = test: as above; conditions: 100 nM; incubation time: 72 h
Protocol: as §1

HCC1937 = test: as above; conditions: 100 nM; incubation time: 72 h
Protocol: as §1

HDQ-P1 = test: as above; conditions: 10 nM; incubation time: 72 h
Protocol: as §1

Hs578T = test: as above; conditions: 100 nM; incubation time: 72 h
Protocol: as §1

MDA-MB-231 [8] = test: as above; conditions: 100 nM; incubation time: 72 h
Protocol: as §1

MDA-MB-436 [9] = test: as above; conditions: 100 nM; incubation time: 72 h
Protocol: as §1

MDA-MB-453 [10] = test: as above; conditions: 10 nM; incubation time: 72 h
Protocol: as §1

MDA-MB-468 [11] = test: as above; conditions: 100 nM; incubation time: 72 h
Protocol: as §1

MFM-223 = test: as above; conditions: 100 nM; incubation time: 72 h
Protocol: as §1

SK-BR-3 [12] = test: as above; conditions: 100 nM; incubation time: 72 h
Protocol: as §1

MDA-MB-453 [13] = test: normalised viability (% of control), CellTiter-Blue; higher = more viable cells (about 100 = DMSO control); conditions: 1000 nM; incubation time: 72 h
How it was run: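 The reported figure is normalised viability at a single listed concentration of the series. Breast cancer cell lines (20 µl suspension) went onto 384-well plates holding compound in 5 µl medium for 72 h. CellTiter-Blue (2.5 µl, 2 h, 37 °C) was read by fluorescence at 560/590 nm, and each plate was scaled to vehicle at 100 and a positive kill control at 0.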

BT-474 [14] = test: normalised viability (% of control), CellTiter-Blue; higher = more viable cells (100 = DMSO, 0 = benzethonium chloride kill control); conditions: 1 nM; incubation time: 72 h
Protocol: (§2)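 DSRT, CellTiter-Blue viability, 72 h incubation. Signal is normalised to DMSO and benzethonium chloride controls. Value is the normalised response at dose 1.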

BT-549 [15] = test: as above; conditions: 1 nM; incubation time: 72 h
Protocol: as §2

CAL-51 [16] = test: as above; conditions: 1 nM; incubation time: 72 h
Protocol: as §2

CAL-85-1 [17] = test: as above; conditions: 1 nM; incubation time: 72 h
Protocol: as §2

DU-4475 [18] = test: as above; conditions: 1 nM; incubation time: 72 h
Protocol: as §2

HCC1143 [19] = test: as above; conditions: 1 nM; incubation time: 72 h
Protocol: as §2

HCC1599 [20] = test: as above; conditions: 1 nM; incubation time: 72 h
Protocol: as §2

MDA-MB-231 [21] = test: as above; conditions: 1 nM; incubation time: 72 h
Protocol: as §2

MDA-MB-436 [22] = test: as above; conditions: 1 nM; incubation time: 72 h
Protocol: as §2

MDA-MB-453 [23] = test: as above; conditions: 1 nM; incubation time: 72 h
Protocol: as §2

MDA-MB-468 [24] = test: as above; conditions: 1 nM; incubation time: 72 h
Protocol: as §2

SK-BR-3 [25] = test: as above; conditions: 1 nM; incubation time: 72 h
Protocol: as §2

CC1=C(/C=C/C(C)=C/C=C/C(C)=C/C(=O)O)C(C)(C)CCC1 [Tretinoin]
normalised viability (BT-474 [1]): 122%
normalised viability (BT-549 [2]): 107%
normalised viability (CAL-120): 77.7%
normalised viability (CAL-148): 92.1%
normalised viability (CAL-51 [3]): 100%
normalised viability (CAL-85-1 [4]): 99.2%
normalised viability (DU-4475 [5]): 100%
normalised viability (HCC1143 [6]): 86.2%
normalised viability (HCC1599 [7]): 92.2%
normalised viability (HCC1937): 98.9%
normalised viability (HDQ-P1): 125%
normalised viability (Hs578T): 91.5%
normalised viability (MDA-MB-231 [8]): 94%
normalised viability (MDA-MB-436 [9]): 99.5%
normalised viability (MDA-MB-453 [10]): 92.9%
normalised viability (MDA-MB-468 [11]): 115%
normalised viability (MFM-223): 86.2%
normalised viability (SK-BR-3 [12]): 87.1%
normalised viability (MDA-MB-453 [13]): 117%
normalised viability (BT-474 [14]): 91.1%
normalised viability (BT-549 [15]): 98.4%
normalised viability (CAL-51 [16]): 93.5%
normalised viability (CAL-85-1 [17]): 87.1%
normalised viability (DU-4475 [18]): 91.8%
normalised viability (HCC1143 [19]): 94.9%
normalised viability (HCC1599 [20]): 99.3%
normalised viability (MDA-MB-231 [21]): 97.2%
normalised viability (MDA-MB-436 [22]): 90.4%
normalised viability (MDA-MB-453 [23]): 100%
normalised viability (MDA-MB-468 [24]): 109%
normalised viability (SK-BR-3 [25]): 97.7%

C1CN1c1nc(N2CC2)nc(N2CC2)n1 [Triethylenemelamine]
normalised viability (BT-474 [1]): 113%
normalised viability (BT-549 [2]): 95.7%
normalised viability (CAL-120): 109%
normalised viability (CAL-148): 103%
normalised viability (CAL-51 [3]): 100%
normalised viability (CAL-85-1 [4]): 101%
normalised viability (DU-4475 [5]): 102%
normalised viability (HCC1143 [6]): 105%
normalised viability (HCC1599 [7]): 106%
normalised viability (HCC1937): 88.5%
normalised viability (HDQ-P1): 102%
normalised viability (Hs578T): 107%
normalised viability (MDA-MB-231 [8]): 115%
normalised viability (MDA-MB-436 [9]): 105%
normalised viability (MDA-MB-453 [10]): 96.6%
normalised viability (MDA-MB-468 [11]): 101%
normalised viability (MFM-223): 93.8%
normalised viability (SK-BR-3 [12]): 95.5%
normalised viability (MDA-MB-453 [13]): 94.4%
normalised viability (BT-474 [14]): 117%
normalised viability (BT-549 [15]): 107%
normalised viability (CAL-51 [16]): 101%
normalised viability (CAL-85-1 [17]): 107%
normalised viability (DU-4475 [18]): 104%
normalised viability (HCC1143 [19]): 101%
normalised viability (HCC1599 [20]): 76.4%
normalised viability (MDA-MB-231 [21]): 96.2%
normalised viability (MDA-MB-436 [22]): 98.5%
normalised viability (MDA-MB-453 [23]): 104%
normalised viability (MDA-MB-468 [24]): 102%
normalised viability (SK-BR-3 [25]): 99%

Oc1ncc(N(CCCl)CCCl)c(O)n1 [Uracil mustard]
normalised viability (BT-474 [1]): 106%
normalised viability (BT-549 [2]): 111%
normalised viability (CAL-120): 87.7%
normalised viability (CAL-148): 95.8%
normalised viability (CAL-51 [3]): 98.6%
normalised viability (CAL-85-1 [4]): 103%
normalised viability (DU-4475 [5]): 98.6%
normalised viability (HCC1143 [6]): 84.8%
normalised viability (HCC1599 [7]): 83.5%
normalised viability (HCC1937): 105%
normalised viability (HDQ-P1): 107%
normalised viability (Hs578T): 116%
normalised viability (MDA-MB-231 [8]): 100%
normalised viability (MDA-MB-436 [9]): 102%
normalised viability (MDA-MB-453 [10]): 107%
normalised viability (MDA-MB-468 [11]): 108%
normalised viability (MFM-223): 90.6%
normalised viability (SK-BR-3 [12]): 88.2%
normalised viability (MDA-MB-453 [13]): 101%
normalised viability (BT-474 [14]): 86.6%
normalised viability (BT-549 [15]): 101%
normalised viability (CAL-51 [16]): 90.7%
normalised viability (CAL-85-1 [17]): 88.9%
normalised viability (DU-4475 [18]): 88.3%
normalised viability (HCC1143 [19]): 95.7%
normalised viability (HCC1599 [20]): 94.5%
normalised viability (MDA-MB-231 [21]): 99.4%
normalised viability (MDA-MB-436 [22]): 96.3%
normalised viability (MDA-MB-453 [23]): 99.1%
normalised viability (MDA-MB-468 [24]): 104%
normalised viability (SK-BR-3 [25]): 97.3%

CCCCC(=O)OCC(=O)[C@]1(O)Cc2c(O)c3c(c(O)c2[C@@H](O[C@H]2C[C@H](NC(=O)C(F)(F)F)[C@H](O)[C@H](C)O2)C1)C(=O)c1c(OC)cccc1C3=O [Valrubicin]
normalised viability (BT-474 [1]): 109%
normalised viability (BT-549 [2]): 85.2%
normalised viability (CAL-120): 77.3%
normalised viability (CAL-148): 91.6%
normalised viability (CAL-51 [3]): 92.2%
normalised viability (CAL-85-1 [4]): 84.2%
normalised viability (DU-4475 [5]): 89.4%
normalised viability (HCC1143 [6]): 86.4%
normalised viability (HCC1599 [7]): 92.2%
normalised viability (HCC1937): 73.7%
normalised viability (HDQ-P1): 120%
normalised viability (Hs578T): 79.7%
normalised viability (MDA-MB-231 [8]): 77%
normalised viability (MDA-MB-436 [9]): 122%
normalised viability (MDA-MB-453 [10]): 103%
normalised viability (MDA-MB-468 [11]): 92.1%
normalised viability (MFM-223): 91.9%
normalised viability (SK-BR-3 [12]): 57.8%
normalised viability (MDA-MB-453 [13]): 55.7%
normalised viability (BT-474 [14]): 92.9%
normalised viability (BT-549 [15]): 107%
normalised viability (CAL-51 [16]): 89.7%
normalised viability (CAL-85-1 [17]): 83.5%
normalised viability (DU-4475 [18]): 93.9%
normalised viability (HCC1143 [19]): 86.5%
normalised viability (HCC1599 [20]): 75.7%
normalised viability (MDA-MB-231 [21]): 79.7%
normalised viability (MDA-MB-436 [22]): 106%
normalised viability (MDA-MB-453 [23]): 97.6%
normalised viability (MDA-MB-468 [24]): 84.3%
normalised viability (SK-BR-3 [25]): 85.5%

CCCS(=O)(=O)Nc1ccc(F)c(C(=O)c2c[nH]c3ncc(-c4ccc(Cl)cc4)cc23)c1F [Vemurafenib]
normalised viability (BT-474 [1]): 111%
normalised viability (BT-549 [2]): 98.2%
normalised viability (CAL-120): 92.7%
normalised viability (CAL-148): 98.1%
normalised viability (CAL-51 [3]): 97.1%
normalised viability (CAL-85-1 [4]): 98.6%
normalised viability (DU-4475 [5]): 107%
normalised viability (HCC1143 [6]): 80.1%
normalised viability (HCC1599 [7]): 98%
normalised viability (HCC1937): 96.4%
normalised viability (HDQ-P1): 87.6%
normalised viability (Hs578T): 110%
normalised viability (MDA-MB-231 [8]): 94.6%
normalised viability (MDA-MB-436 [9]): 81.6%
normalised viability (MDA-MB-453 [10]): 107%
normalised viability (MDA-MB-468 [11]): 104%
normalised viability (MFM-223): 87.5%
normalised viability (SK-BR-3 [12]): 96.9%
normalised viability (MDA-MB-453 [13]): 87.2%
normalised viability (BT-474 [14]): 99.8%
normalised viability (BT-549 [15]): 114%
normalised viability (CAL-51 [16]): 94.4%
normalised viability (CAL-85-1 [17]): 91.6%
normalised viability (DU-4475 [18]): 88%
normalised viability (HCC1143 [19]): 93.8%
normalised viability (HCC1599 [20]): 83.4%
normalised viability (MDA-MB-231 [21]): 113%
normalised viability (MDA-MB-436 [22]): 91.1%
normalised viability (MDA-MB-453 [23]): 89.8%
normalised viability (MDA-MB-468 [24]): 110%
normalised viability (SK-BR-3 [25]): 92.2%
